# Patent US20030013099A1, “Genes regulated by DNA methylation in colon tumors” (priority 2001, published 2003)
# Tested on: HMEC cells
# Experiment: microarray differential expression, HMEC cells treated with Aza
# Assay type: cell-based, human
# Settings: vs untreated, log base 2, negative = upregulation
# Description: HT29 cells were derived from a Grade II adenocarcinoma of the colon obtained from a person. HCT116 cells are a subpopulation of malignant cells isolated from a primary cell culture of a single human colonic carcinoma (Brattain et al. (1981) Cancer Res 41:1751-6). HMEC cells are a primary human epithelial cell line derived from the breast tissue of a normal donor. […] Treated cells were exposed to 500 nM 5-aza-2-deoxycytidine (Aza; Sigma-Aldrich) 24 hours after passage in complete culture medium. Control cultures were treated in parallel with phosphate buffered saline vehicle. After twenty-four hours, culture medium was replaced with drug-free medium. Control and Aza-treated cells were subcultured at equal densities at 1 and 5 days after the initial treatment, and proliferation was measured at the subsequent time point using a Coulter counter (Beckman Coulter, Fullerton Calif.). […]
# Cells were harvested and lysed in 1 ml of TRIZOL reagent (5×10^6 cells/ml; Invitrogen). The lysates were vortexed thoroughly and incubated at room temperature for 2-3 minutes and extracted with 0.5 ml chloroform. The extract was mixed, incubated at room temperature for 5 minutes, and centrifuged at 16,000× g for 15 minutes at 4° C. The aqueous layer was collected, and an equal volume of isopropanol was added. Samples were mixed, incubated at room temperature for 10 minutes, and centrifuged at 16,000× g for 20 minutes at 4° C. The supernatant was removed, and the RNA pellet was washed with 1 ml of 70% ethanol, centrifuged at 16,000× g at 4° C., and resuspended in RNAse-free water. The concentration of the RNA was determined by measuring the optical density at 260 nm.
# Poly(A) RNA was prepared using an OLIGOTEX mRNA kit (Qiagen) with the following modifications: OLIGOTEX beads were washed in tubes instead of on spin columns, resuspended in elution buffer, and then loaded onto spin columns to recover mRNA. To obtain maximum yield, the mRNA was eluted twice.
# Each poly(A) RNA sample was reverse transcribed using MMLV reverse-transcriptase, 0.05 pg/μl oligo-d(T) primer (21mer), 1× first strand buffer, 0.03 units/ul RNAse inhibitor, 500 uM dAT?, 500 uM dGTP, 500 uM dTTP, 40 uM dCTP, and 40 uM either dCTP-Cy3 or dCTP-Cy5 (APB). The reverse transcription reaction was performed in a […] volume containing 200 ng poly(A) RNA using the GEMBRIGHT kit (Incyte Genomics). Specific control poly(A) RNAs (YCFRO6, YCFR45, YCFR67, YCFR85, YCFR43, YCFR22, YCFR23, YCFR25, YCFR44, YCFR26) were synthesized by in vitro transcription from non-coding yeast genomic DNA (W. Lei, unpublished). As quantitative controls, control mRNAs (YCFRO6, YCFR45, YCFR67, and YCFR85) at 0.002 ng, 0.02 ng, 0.2 ng, and 2 ng were diluted into reverse transcription reaction at ratios of 1:100,000, 1:10,000, 1:1000, 1:100 (w/w) to sample mRNA, respectively. To sample differential expression patterns, control mRNAs (YCFR43, YCFR22, YCFR23, YCFR25, YCFR44, YCFR26) were diluted into reverse transcription reaction at ratios of 1:3, 3:1, 1:10, 10:1, 1:25, 25:1 (w/w) to sample mRNA. Reactions were incubated at 37° C. for 2 hours, treated with […] of 0.5M sodium hydroxide, and incubated for 20 minutes at 85° C. to the stop the reaction and degrade the RNA.
# cDNAs were purified using two successive CHROMA SPIN 30 gel filtration spin columns (Clontech). Cy3- and Cy5-labeled reaction samples were combined as described below and ethanol precipitated using […] of 100% ethanol. The cDNAs were then dried to completion using a SpeedVAC system (Savant Instruments, Holbrook N.Y.) and resuspended in 14 μl 5× SSC, 0.2% SDS.
# Hybridization reactions contained 9 μl of sample mixture containing 0.2 μg each of Cy3 and CyS labeled cDNA synthesis products in 5× SSC, 0.2% SDS hybridization buffer. The mixture was heated to 65° C. for 5 minutes and was aliquoted onto the microarray surface and covered with an 1.8 cm^2 coverslip. […]
# [1] = SEQ ID NO:1 hypothetical protein
# [2] = SEQ ID NO:3 interferon-inducible protein
# [3] = SEQ ID NO:5 chromosome 6p21.3, HLA Class I region
# [4] = SEQ ID NO:6 unnamed protein product
# [5] = SEQ ID NO:8 putative tumor antigen
# [6] = SEQ ID NO:12 cDNA clone ZD16H10
# [7] = SEQ ID NO:13, 14 T-cell receptor gamma
# [8] = SEQ ID NO:15 pTR5 repetitive sequence
# [9] = SEQ ID NO:24 pTR7 repetitive sequence
# [10] = SEQ ID NO:25 chromosome 21 segment HS21C049
# [11] = SEQ ID NO:26 hypothetical protein
smiles,measurement,setting,value
"Nc1ncn([C@H]2C[C@H](O)[C@@H](CO)O2)c(=O)n1 [Aza, 5-aza-2-deoxycytidine]","differential expression, Clone ID 2416222, HMEC t/Aza (4d)",[1],0.00
same,"differential expression, Clone ID 2416222, HMEC t/Aza (9d)",[1],0.00
same,"differential expression, Clone ID 4103545, HMEC t/Aza (4d)",SEQ ID NO:2 Incyte Unique,−0.13
same,"differential expression, Clone ID 4103545, HMEC t/Aza (9d)",SEQ ID NO:2 Incyte Unique,−0.43
same,"differential expression, Clone ID 322569, HMEC t/Aza (4d)",[2],−0.53
same,"differential expression, Clone ID 322569, HMEC t/Aza (9d)",[2],−0.80
same,"differential expression, Clone ID 5322134, HMEC t/Aza (4d)",[3],−0.32
same,"differential expression, Clone ID 5322134, HMEC t/Aza (9d)",[3],−0.43
same,"differential expression, Clone ID 1698458, HMEC t/Aza (4d)",[4],0.26
same,"differential expression, Clone ID 1698458, HMEC t/Aza (9d)",[4],0.26
same,"differential expression, Clone ID 1871523, HMEC t/Aza (4d)",SEQ ID NO:7 KIAA1046 protein,−0.24
same,"differential expression, Clone ID 1871523, HMEC t/Aza (9d)",SEQ ID NO:7 KIAA1046 protein,−0.07
same,"differential expression, Clone ID 6024084, HMEC t/Aza (4d)",[5],0.00
same,"differential expression, Clone ID 6024084, HMEC t/Aza (9d)",[5],0.00
same,"differential expression, Clone ID 3810006, HMEC t/Aza (4d)",SEQ ID NO:9 Incyte Unique,0.00
same,"differential expression, Clone ID 3810006, HMEC t/Aza (9d)",SEQ ID NO:9 Incyte Unique,0.00
same,"differential expression, Clone ID 4508879, HMEC t/Aza (4d)",SEQ ID NO:10 Incyte Unique,−0.14
same,"differential expression, Clone ID 4508879, HMEC t/Aza (9d)",SEQ ID NO:10 Incyte Unique,−0.20
same,"differential expression, Clone ID 4225379, HMEC t/Aza (4d)",SEQ ID NO:11 U 6 RNA,0.00
same,"differential expression, Clone ID 4225379, HMEC t/Aza (9d)",SEQ ID NO:11 U 6 RNA,0.00
same,"differential expression, Clone ID 3463713, HMEC t/Aza (4d)",[6],−0.26
same,"differential expression, Clone ID 3463713, HMEC t/Aza (9d)",[6],−0.48
same,"differential expression, Clone ID 2998017, HMEC t/Aza (4d)",[7],0.00
same,"differential expression, Clone ID 2998017, HMEC t/Aza (9d)",[7],0.00
same,"differential expression, Clone ID 4318273, HMEC t/Aza (4d)",[8],0.00
same,"differential expression, Clone ID 4318273, HMEC t/Aza (9d)",[8],−0.26
same,"differential expression, Clone ID 1649414, HMEC t/Aza (4d)",SEQ ID NO:16 Hep27 protein,−0.32
same,"differential expression, Clone ID 1649414, HMEC t/Aza (9d)",SEQ ID NO:16 Hep27 protein,−0.32
same,"differential expression, Clone ID 1684742, HMEC t/Aza (4d)",SEQ ID NO:18 cDNA FLJ20222,−0.36
same,"differential expression, Clone ID 1684742, HMEC t/Aza (9d)",SEQ ID NO:18 cDNA FLJ20222,−0.20
same,"differential expression, Clone ID 2825816, HMEC t/Aza (4d)",SEQ ID NO:19 KIAA0412,0.00
same,"differential expression, Clone ID 2825816, HMEC t/Aza (9d)",SEQ ID NO:19 KIAA0412,0.00
same,"differential expression, Clone ID 2440943, HMEC t/Aza (4d)",SEQ ID NO:21 Incyte Unique,−0.20
same,"differential expression, Clone ID 2440943, HMEC t/Aza (9d)",SEQ ID NO:21 Incyte Unique,−0.26
same,"differential expression, Clone ID 1294339, HMEC t/Aza (4d)",SEQ ID NO:22 PDGF-B,−0.68
same,"differential expression, Clone ID 1294339, HMEC t/Aza (9d)",SEQ ID NO:22 PDGF-B,−0.72
same,"differential expression, Clone ID 5104741, HMEC t/Aza (4d)",SEQ ID NO:23 cDNA FLJ10570,0.00
same,"differential expression, Clone ID 5104741, HMEC t/Aza (9d)",SEQ ID NO:23 cDNA FLJ10570,0.00
same,"differential expression, Clone ID 1855389, HMEC t/Aza (4d)",[9],−0.14
same,"differential expression, Clone ID 1855389, HMEC t/Aza (9d)",[9],−0.26
same,"differential expression, Clone ID 5207613, HMEC t/Aza (4d)",[10],−0.26
same,"differential expression, Clone ID 5207613, HMEC t/Aza (9d)",[10],−0.37
same,"differential expression, Clone ID 3207902, HMEC t/Aza (4d)",[11],−0.14
same,"differential expression, Clone ID 3207902, HMEC t/Aza (9d)",[11],−0.26
same,"differential expression, Clone ID 4999769, HMEC t/Aza (4d)",SEQ ID NO:27 ZNFpT17,0.00
same,"differential expression, Clone ID 4999769, HMEC t/Aza (9d)",SEQ ID NO:27 ZNFpT17,0.07
same,"differential expression, Clone ID 408886, HMEC t/Aza (4d)",SEQ ID NO:28 transketolase,−0.26
same,"differential expression, Clone ID 408886, HMEC t/Aza (9d)",SEQ ID NO:28 transketolase,−0.32
same,"differential expression, Clone ID 4764233, HMEC t/Aza (4d)",SEQ ID NO:30 GAGE-8,0.00
